Laboratory results as given in PubChem BioAssay (NCI).
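Exposure lasted 48 hours, with cells grown in 96-well plates and compounds tested at five concentrations. TGI marks complete inhibition of growth.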

What was measured:
Test in all cases: growth of human tumour cells (NCI), 48 h
HOP-92 NSCLC = system: HOP-92 NSCLC
HCC-2998 colon = system: HCC-2998 colon
786-0 renal = system: 786-0 renal
TK-10 renal = system: TK-10 renal
UACC-257 melanoma = system: UACC-257 melanoma
SF-295 CNS = system: SF-295 CNS
CCRF-CEM leukemia = system: CCRF-CEM leukemia
SF-539 CNS = system: SF-539 CNS
NCI/ADR-RES ovarian = system: NCI/ADR-RES ovarian
SK-MEL-5 melanoma = system: SK-MEL-5 melanoma
PC-3 prostate = system: PC-3 prostate
SF-268 CNS = system: SF-268 CNS
OVCAR-3 ovarian = system: OVCAR-3 ovarian
LOX IMVI melanoma = system: LOX IMVI melanoma
T-47D breast = system: T-47D breast
EKVX NSCLC = system: EKVX NSCLC
MCF7 breast = system: MCF7 breast
SW-620 colon = system: SW-620 colon
MDA-MB-231 breast = system: MDA-MB-231 breast
NCI-H226 lung = system: NCI-H226 lung
COLO 205 colon = system: COLO 205 colon
NCI-H23 lung = system: NCI-H23 lung
UACC-62 melanoma = system: UACC-62 melanoma
NCI-H460 lung = system: NCI-H460 lung
HOP-62 NSCLC = system: HOP-62 NSCLC
U251 CNS = system: U251 CNS
BT-549 breast = system: BT-549 breast
RXF 393 renal = system: RXF 393 renal
K-562 leukemia = system: K-562 leukemia
SNB-75 CNS = system: SNB-75 CNS
MDA-MB-435 = system: MDA-MB-435
OVCAR-5 ovarian = system: OVCAR-5 ovarian
SK-MEL-28 melanoma = system: SK-MEL-28 melanoma
RPMI-8226 leukemia = system: RPMI-8226 leukemia
DU-145 prostate = system: DU-145 prostate
OVCAR-4 ovarian = system: OVCAR-4 ovarian
M14 melanoma = system: M14 melanoma
CAKI-1 renal = system: CAKI-1 renal
UO-31 renal = system: UO-31 renal
SNB-19 CNS = system: SNB-19 CNS
A549 NSCLC = system: A549 NSCLC
MOLT-4 leukemia = system: MOLT-4 leukemia
SK-OV-3 ovarian = system: SK-OV-3 ovarian
A498 renal = system: A498 renal
SK-MEL-2 melanoma = system: SK-MEL-2 melanoma
HCT-15 colon = system: HCT-15 colon
ACHN renal = system: ACHN renal
KM12 colon = system: KM12 colon
HCT-116 colon = system: HCT-116 colon
OVCAR-8 ovarian = system: OVCAR-8 ovarian
SR leukemia = system: SR leukemia
MALME-3M melanoma = system: MALME-3M melanoma
HT29 colon = system: HT29 colon
IGROV1 ovarian = system: IGROV1 ovarian

Measured: TGI

COc1ccc(C2c3c(n(C)c(=O)n(C)c3=O)OC(N(C)C)(N(C)C)C2(F)F)cc1 (stereo unspecified)
not listed: OVCAR-8 ovarian | SR leukemia | MALME-3M melanoma | HT29 colon | IGROV1 ovarian
> 100 µM: all other assays above

COCP1(=S)OC(C)CCN1C(C)C (stereo unspecified)
not listed: HOP-92 NSCLC | CCRF-CEM leukemia | RXF 393 renal | SNB-75 CNS | SK-MEL-28 melanoma | MOLT-4 leukemia | A498 renal
> 100 µM: all other assays above
